Data from US20250161297A1, “COMPOSITIONS AND METHODS FOR INHIBITING FSP1” (THE REGENTS OF THE UNIVERSITY OF CALIFORNIA, priority 2022, published 2025).

Molecular target: T1, recombinant purified FSP1 (Homo sapiens, UniProt Q9BRQ8)
T1 construct: made in house; host or cells: E. coli LOBSTR-BL21 (DE3)
T1 sequence (Q9BRQ8 1-373): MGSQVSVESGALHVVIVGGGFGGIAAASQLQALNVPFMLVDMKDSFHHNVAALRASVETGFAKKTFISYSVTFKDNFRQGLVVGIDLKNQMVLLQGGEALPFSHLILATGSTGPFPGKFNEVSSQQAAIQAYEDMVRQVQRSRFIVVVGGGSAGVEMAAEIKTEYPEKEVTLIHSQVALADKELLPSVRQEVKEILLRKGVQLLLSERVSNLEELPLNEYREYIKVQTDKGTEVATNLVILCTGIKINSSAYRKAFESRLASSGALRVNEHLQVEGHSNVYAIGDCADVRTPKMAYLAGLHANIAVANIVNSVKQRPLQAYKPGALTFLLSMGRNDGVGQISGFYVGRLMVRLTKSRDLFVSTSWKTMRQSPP
Test: FSP1 enzyme kinetics with NADH, CoQ-coumarin and CoQ1
Assay type: biochemical
Method: FSP1 Kinetics (NADH): To measure FSP1 kinetics, FSEN1 was dissolved and diluted in DMSO, and recombinant purified FSP1 was diluted in PBS. 0.5 μL FSEN1 and 12.5 μL FSP1 were mixed and incubated for 30 minutes in a NBS polystyrene 384-well plate (Corning Ref: 3640) at RT. Vehicle control wells included 0.5 μL DMSO and were absent of any FSEN1. NADH (Millipore Cat: 481913) was then dissolved and diluted in PBS and added to the plate wells. CoQ-Coumarin (Cayman Item: 29554) was dissolved in DMSO, diluted in PBS, and added to the plate wells to start the reaction. Final well volume was 25 μL, and final concentrations were 25 nM FSP1, 10UM CoQ-Coumarin, 1-50 μM NADH, and 50-500 nM FSEN1. […] Reduced CoQ-Coumarin fluorescence (Ex: 405 nm, Em: 475 nm) was measured as read-out of enzymatic product formation on a kinetic cycle with an interval time of 20 seconds at RT. […] Raw data from 3 biological replicates were then plotted and initial slopes were calculated using a linear regression in prism (GraphPad).
FSP1 Kinetics (CoQ-Coumarin): To measure FSP1 kinetics, FSEN1 was dissolved and diluted in DMSO, and recombinant purified FSP1 was diluted in PBS. […] Reduced CoQ-Coumarin fluorescence (Ex: 405 nm, Em: 475 nm) was measured as read-out of enzymatic product formation on a kinetic cycle with an interval time of 15 seconds at RT. […]

COc1ccc(N2CCN(Cc3cn4c(-c5ccc(Br)cc5)nnc4s3)CC2)cc1 [FSEN1]
change in Kcat (as FSEN1 concentrations increased): decrease in Kcat values
mechanism of FSP1 inhibition (increasing NADH and CoQ-coumarin, Lineweaver-Burke plots parallel): uncompetitive inhibitor
